Data reported in patent US4189426A, “Recombinant hormonal compositions and method” (Hoffmann-La Roche, Inc., priority 1978, dated 1980).
Where two headings read alike, the source gives them in different places. Starred links: 1 amine or outer side, 2 acyl side, 3 side chain; linkers in the order of their positions; H or OH if unused. Non-standard residues stand in square brackets, D forms with d. No end group written: not given here. Cys(Cam) = carboxamidomethylated cysteine, NC(=O)CSC[C@H](N[*:1])C(=O)[*:2]

How the values were obtained:
[1] = test system: pigeon crop-sac; assay: local crop-sac assay in the pigeon (prolactin / lactogenic activity); assay type: in vivo; settings: for Dry mucosal weight: Table 4, pigeon crop-sac test; for Dry mucosal weight / Pigeon crop-sac assay Response (dry mucosal weight): mean ± standard error; for Pigeon crop-sac assay Response (dry mucosal weight): Table 1, four birds; for Response (dry mucosal weight): Table 10, mean ± SEM, number of birds in parentheses
Method: The growth-promoting activity of PL-HGH, the unpurified recombinant of Example 1 (fraction IV), [Cys(Cam)^53 -HGH-(1-134)], [Cys(Cam)^165, 182, 189 -HGH-(141-191)] and saline control were determined by the rat tibia test of Greenspan et al, Endocrinology 45, 455 (1949) and by the local crop-sac assay in the pigeon according to Lyons, Proc. Soc. Exp. Biol. 35, 645 (1937) and Nicoll, Endocrinology 80, 641 (1967). Amino acid compositions of acid and carboxypeptidase hydrolysates were determined in an automatic amino acid analyzer (model 120B, Beckman Instruments). For the analysis of tryptophan, the methanesulfonic acid hydrolysates were used. Amino-terminal residue and sequence analyses were preformed by the dansyl-Edman procedure. Isoelectric focusing was carried out in 8 M urea. Prolactin activity was estimated by the pigeon crop-sac assay. Microcomplement fixation experiments were performed with rabbit antisera to HCS. The gel-double-diffusion technique of Ouchterlony was done using 1% agar in 0.01 M phosphate buffer of pH 7.5. Exclusion chromatography of the purified fragments or the recombinant was performed on a Sephadex G-100 column (1.5×60 cm; V0 =35 ml) in 10 mM NH4 HCO3 (pH 8.4) at 21°. Circular dichroism (CD) spectra were obtained by a spectropolarimeter (Cary model 60) equipped with a circular dichroism attachment (model 6002). Microcomplement fixation was performed with the guinea pig antiserum to ovine prolactin. The gel double-diffusion technique of Ouchterlony was carried out with 1% agar in 10 mM phosphate buffer (pH 7.5). The prolactin activity was estimated by the local crop-sac assay in the pigeon.

[2] = test system: rabbit antisera to HCS; assay: microcomplement fixation; assay type: binding; settings: antiserum to HCS at a dilution of 1:5500; HCS at 10 ng
Method: (§1) Amino acid compositions of acid and carboxypeptidase hydrolysates were determined in an automatic amino acid analyzer (model 120B, Beckman Instruments). For the analysis of tryptophan, the methanesulfonic acid hydrolysates were used. Amino-terminal residue and sequence analyses were preformed by the dansyl-Edman procedure. Isoelectric focusing was carried out in 8 M urea. Prolactin activity was estimated by the pigeon crop-sac assay. Microcomplement fixation experiments were performed with rabbit antisera to HCS. The gel-double-diffusion technique of Ouchterlony was done using 1% agar in 0.01 M phosphate buffer of pH 7.5.

[3] = test system: antisera to HCS; assay: gel double-diffusion technique of Ouchterlony; assay type: binding, rabbit; settings: HCS 10 μg, small fragment 40 μg
Method: as §1

[4] = test system: rat tibia; assay: rat tibia test (growth-promoting activity); assay type: in vivo; settings: for Response (tibia width): mean ± SEM; for Response (tibia width) / Rat tibia assay Response (tibia width): four animals; for Rat tibia assay Response (tibia width): Table 1, mean ± standard error; for growth-promoting activity, result in words: rat tibia test; for Response (rat tibia test): Table 7, total dose of 600 μg in 4 days, means ± S.E., four test animals; for Relative potency to HGH: Tables 5 and 8
Method: The growth-promoting activity of PL-HGH, the unpurified recombinant of Example 1 (fraction IV), [Cys(Cam)^53 -HGH-(1-134)], [Cys(Cam)^165, 182, 189 -HGH-(141-191)] and saline control were determined by the rat tibia test of Greenspan et al, Endocrinology 45, 455 (1949) and by the local crop-sac assay in the pigeon according to Lyons, Proc. Soc. Exp. Biol. 35, 645 (1937) and Nicoll, Endocrinology 80, 641 (1967).
(§2) Plasmin fragments of reduced-carboxamidomethylation HGH and HCS were obtained as described above. Exclusion chromatography of the reaction mixture was performed at 22° C. on a Sephadex G-100 column (1.5×60 cm) in 0.01 M NH4 HCO3 of pH 8.4. For radioimmunoassay, the double-antibody procedure using a guinea pig antiserum to native HGH was performed. The growth-promoting activity was determined by the rat tibia test.

[5] = test system: guinea pig antiserum to native HGH; assay: radioimmunoassay, double-antibody procedure; assay type: binding
Method: as §2

[6] = test system: antiserum to prolactin; assay: gel double-diffusion technique of Ouchterlony; assay type: binding
Method: (§3) Exclusion chromatography of the purified fragments or the recombinant was performed on a Sephadex G-100 column (1.5×60 cm; V0 =35 ml) in 10 mM NH4 HCO3 (pH 8.4) at 21°. Circular dichroism (CD) spectra were obtained by a spectropolarimeter (Cary model 60) equipped with a circular dichroism attachment (model 6002). Microcomplement fixation was performed with the guinea pig antiserum to ovine prolactin. The gel double-diffusion technique of Ouchterlony was carried out with 1% agar in 10 mM phosphate buffer (pH 7.5). The prolactin activity was estimated by the local crop-sac assay in the pigeon.

[7] = test system: guinea pig antiserum to ovine prolactin; assay: microcomplement fixation; assay type: binding; settings: guinea pig antiserum to ovine prolactin at a dilution of 1:5000; 10 ng of the antigen
Method: as §3

## Cys (Cam)^53 -HCS-(1-133) [N]
[1]; total dose 40 (mg)
  Dry mucosal weight: 11.2 ± 0.7 mg
[1]; total dose 120 (mg)
  Dry mucosal weight: 12.0 ± 0.9 mg
[1]; pigeon crop-sac assay
  prolactin (lactogenic) activity, result in words: may have low activity but is much less than the native hormone
[2]
  complement fixed: less than 10%
[3]
  precipitin reaction: weak precipitin line which showed non-identity with the native hormone
[4]; Table 5, total dose 300 μg
  Response (tibia width): 185.5 ± 1.7 micrometers

## Cys(Cam)^53 -HGH-(1-134) [reference compound]
[1]; total dose 0.65 nmol
  Pigeon crop-sac assay Response (dry mucosal weight): 9.6 ± 1.8 mg
[1]; total dose 1.95 nmol
  Pigeon crop-sac assay Response (dry mucosal weight): 12.4 ± 2.7 mg
[1]; pigeon crop-sac assay
  prolactin (lactogenic) activity, result in words: only a very small fraction of the comparative biological activities of the native human growth hormone
[1]; pigeon crop-sac assay, Tables 1 and 2
  Relative potency to PLHGH: less than 1%
[4]; total dose 3.26 nmol
  Rat tibia assay Response (tibia width): 207.2 ± 1.5 micra
[4]; total dose 9.78 nmol
  Rat tibia assay Response (tibia width): 235.5 ± 1.5 micra
[4]; Table 5, total dose 150 μg
  Response (tibia width): 231.2 ± 1.6 micrometers
[4]; Table 5, total dose 450 μg
  Response (tibia width): 275.0 ± 3.8 micrometers
[4]; rat tibia assay, Tables 1 and 2
  Relative potency to PLHGH: 8%
[4]
  growth-promoting activity, result in words: only a very small fraction of the comparative biological activities of the native human growth hormone
[5]
  radioimmunoassay inhibition / cross-reaction compared with HGH, in words: only a slight cross-reaction

## Cys(Cam)^165,182,189 -HGH-(141-191) (QTYSKFDTNSHNDDALLKNYGLLY[Cys(Cam)]FRKDMDKVETFLRIVQ[Cys(Cam)]RSVEGS[Cys(Cam)]GF; UniProt P01241 167-217, looked up, fragment) [COOH-terminal plasmin fragment of reduced-carboxamidomethylated HGH, reference compound]
[1]; total dose 20.3 nmol
  Pigeon crop-sac assay Response (dry mucosal weight): 13.4 ± 1.2 mg
[1]; pigeon crop-sac assay
  prolactin (lactogenic) activity, result in words: only a very small fraction of the comparative biological activities of the native human growth hormone
[4]; total dose 9.78 nmol
  Rat tibia assay Response (tibia width): 186.7 ± 4.4 micra
[4]
  Response (rat tibia test): 212 ± 7.3 microns
[4]; 182, 189 HGH-(141-191)]
  growth-promoting activity, result in words: only a very small fraction of the comparative biological activities of the native human growth hormone
[4]; listed as the 51 residue fragment
  growth-promoting activity, result in words: about nil

## Cys(Cam)^165, 182, 189, -HCS-141-191
[1]; total dose 120 (mg)
  Dry mucosal weight: 6.5 ± 1.4 mg
[2]
  complement fixed: less than 10%
[3]
  precipitin reaction: failed to give a precipitin reaction

## [Cys(Cam)HCS-(1-133)] + [Recombinant II, [Cys(Cam)HCS-(1-133)] + [Cys(Cam)^165,182,189 -HGH-(141-191)]]
[4]; Table 5, total dose 30 μg
  Response (tibia width): 218.5 ± 9.8 micrometers
[4]; Table 5, total dose 90 μg
  Response (tibia width): 229.0 ± 4.1 micrometers
[4]; rat tibia assay
  Relative potency to HGH: 10%
[4]
  growth-promoting activity, result in words: less active in comparison with that of I
[4]; listed as recombinant of Cys(Cam)^53 -HCS-(1-133) and Cys(Cam)^165, 182, 189 -HGH-(141-191)
  growth-promoting activity, result in words: measurable growth promoting activity but at a reduced level of potency than the aforesaid recombinants
[5]
  antigen concentration needed to give the same degree of inhibition, relative to HGH: at least 30 times
  radioimmunoassay inhibition / cross-reaction compared with HGH, in words: much less effective than HGH

## [Cys(Cam)^53 -HGH(1-134)] + [Recombinant I, [Cys(Cam)^53 -HGH(1-134)] + [Cys(Cam^165,182,189 -HCS-(141-191)]]
[4]; Table 5, total dose 20 μg
  Response (tibia width): 212.0 ± 4.7 micrometers
[4]; Table 5, total dose 60 μg
  Response (tibia width): 259.2 ± 2.9 micrometers
[4]; rat tibia assay, Table 5
  Relative potency to Cys(Cam)^53 HGH-(1-134): 491%
[4]; rat tibia assay
  Relative potency to HGH: 50%
[4]
  growth-promoting activity, result in words: significant growth-promoting activity
[5]
  radioimmunoassay inhibition / cross-reaction compared with HGH, in words: at low concentrations gave nearly identical inhibition to that of HGH
[5]; listed as recombinant of Cys (Cam)^53 -HGH-(1-134) and Cys (Cam)^165, 182, 189 -HCS-(141-1)
  radioimmunoassay inhibition / cross-reaction compared with HGH, in words: nearly full immunoreactivity against the antiserum to HGH

## [Cys(Cam)^53 ]-HGH(1-134) + [Nle^170, Ala^165, 182, 189 ]-HGH(145-191) [Recombinant IV]
[4]; Table 8, total dose 20 μg
  Response (tibia width): 248.5 ± 7.7 micrometers
[4]; Table 8, total dose 60 μg
  Response (tibia width): 297.2 ± 10.0 micrometers
[4]; rat tibia assay
  Relative potency to HGH: 113%

## [Cys(Cam)^ 53 ]-HGH(1-134) + [Nle^170, Ala^165, 182, 189 ]-HGH(140-191) [Recombinant III]
[4]; Table 8, total dose 20 μg
  Response (tibia width): 249.2 ± 9.2 micrometers
[4]; Table 8, total dose 60 μg
  Response (tibia width): 286.0 ± 2.1 micrometers
[4]; rat tibia assay
  Relative potency to HGH: 100%

## [Lys^135,136,138, Glu^137,139, Nle^170,Ala^165,182,189 ]-HGH-(135-191)
[4]
  Response (rat tibia test): 192 ± 3.5 microns

## [Nle^170, Ala^165,182,189 ]-HGH-(140-191)
[4]
  Response (rat tibia test): 197 ± 4.2 microns

## [Nle^170, Ala^165,182,189 ]-HGH-(145-191)
[4]
  Response (rat tibia test): 189.5 ± 7.5 microns

## human growth hormone [HGH]
[4]; Table 5, total dose 20 μg
  Response (tibia width): 242.8 ± 3.8 micrometers
[4]; Table 5, total dose 60 μg
  Response (tibia width): 282.8 ± 1.5 micrometers
[4]; Table 8, total dose 20 μg
  Response (tibia width): 245.0 ± 9.5 micrometers
[4]; Table 8, total dose 60 μg
  Response (tibia width): 290.2 ± 2.9 micrometers

B1: Prolactin: prolactin isolated from sheep pituitary glands (protein, UniProt P01240 31-229, looked up)
Prolactin: TPVCPNGPGNCQVSLRDLFDRAVMVSHYIHNLSSEMFNEFDKRYAQGKGFITMALNSCHTSSLPTPEDKEQAQQTHHEVLMSLILGLLRSWNDPLYHLVTEVRGMKGVPDAILSRAIEIEEENKRLLEGMEMIFGQVIPGAKETEPYPVWSGLPSLQTKDEDARHSAFYNLLHCLRRDSSKIDTYLKLLNCRIIYNNNC
[1]; total dose 2 μg
  Response (dry mucosal weight): 20.5 ± 0.9 mg
[1]; total dose 6 μg
  Response (dry mucosal weight): 45.2 ± 3.1 mg
[6]
  precipitin line: single precipitin line
[7]
  complement fixed: 98%

B2: human chorionic somatomammotropin (protein, UniProt P0DML2 27-217, looked up)
Chorionic somatomammotropin …: VQTVPLSRLFDHAMLQAHRAHQLAIDTYQEFEETYIPKDQKYSFLHDSQTSFCFSDSIPTPSNMEETQQKSNLELLRISLLLIESWLEPVRFLRSMFANNLVYDTSDSDDYHLLKDLEEGIQTLMGRLEDGSRRTGQILKQTYSKFDTNSHNHDALLKNYGLLYCFRKDMDKVETFLRMVQCRSVEGSCGF
notes: native human choriomammotropin hormone
[1]; total dose 4 (mg)
  Dry mucosal weight: 24.2 ± 2.9 mg
[1]; total dose 12 (mg)
  Dry mucosal weight: 30.5 ± 3.7 mg
[2]
  complement fixed: about 90%
[3]
  precipitin reaction: single sharp precipitin line
